The values that follow come from PMC9814792 (Communications Chemistry, 2022).

One data set concerns A2780 cells. The experiment in a line: 72 h cell viability (MTT) assay. In kind it is cell-based, human. To be noted: A2780, 72 h continuous exposure; read-out: IC50 value (95% confidence interval). As to the method: (§1) Cells were seeded (3–4 ×10^3 cells/well) in 96-well plates in 100 µL and after 24 h recovery treated with 100 µL of compounds at the indicated concentrations in triplicates. After 72 h drug exposure cell viability was determined by 3-(4,5-dimethylthiazol-2-yl)-2,5-diphenyltetrazolium bromide (MTT)-vitality assay (EZ4U, Biomedica, Vienna, Austria) following the manufacturer’s recommendations, as published. Absorbance was measured at 450 nm (at 620 nm as reference) using the multimode plate reader Tecan Infinite 200 Pro (Zurich, Switzerland). Cytotoxicity was expressed as IC50 values calculated from full dose-response curves using the 4 parameter nonlinear regression model of GraphPad Prism 8 software (La Jolla, CA, USA).

Another data set deals with HCT116 cells. The data set is described as follows: 72 h cell viability (MTT) assay. To be noted: HCT116, 72 h continuous exposure; read-out: IC50 value (95% confidence interval). In kind it is cell-based, human. As to the method: as §1
A further data set relates to A2780/Cis cells. The data set is described as follows: 72 h cell viability (MTT) assay. In kind it is cell-based, human. Here is the method: as §1
The subject of a further data set is HCT116/OxR cells. The data set is described as follows: 72 h cell viability (MTT) assay. In kind it is cell-based, human. As to the method:
Absorbance was measured at 450 nm (at 620 nm as reference) using the multimode plate reader Tecan Infinite 200 Pro (Zurich, Switzerland). Cytotoxicity was expressed as IC50 values calculated from full dose-response curves using the 4 parameter nonlinear regression model of GraphPad Prism 8 software (La Jolla, CA, USA).

For data set [1], the system named is HCT116 and HCT116/OxR cells. The data set is described as follows: Cellular GSH content (GSH/GSSG-Glo). In kind it is cell-based, human. To be noted: 24 h exposure, single agent. As to the method: GSH levels in HCT116 and HCT116/OxR cells (7.5 × 10^4 cells per well in 96-well plates, in triplicate), or in CT26 tumor tissues (25–50 mg/sample) were determined using the luminescence-based detection system GSH/GSSG-Glo^TM assay (Promega, Madison, WI) following the manufacturer’s recommendations. Quantifications are based on the comparison with a GSH standard curve delivered in the assay and normalized to the total protein content of the samples determined by the Micro BCA^TM protein assay kit (Thermo Scientific).

Another data set concerns CT26 allografts. The experiment in a line: In vivo anticancer activity, CT26 allografts. Details: species or system BALB/c mice. As to the method:
Eight-to nine-week-old female BALB/c mice bred in-house (originally Janvier) were kept in pathogen-free conditions and controlled environment with 12 h light-dark cycle. CT26 cells (5 × 10^5 in 50 µL serum-free RPMI medium) were injected subcutaneously (s.c.) into the right flank of the animals. […] Tumor growth was evaluated by daily recording of tumor size by caliper measurement. […] The reasons were primarily either enhanced tumor size or ulceration. For drug distribution (digestion and ICP-MS measurement details see below), histological and GSH determination experiments, mice were treated twice during one week and sacrificed 24 h after the last drug dosing. The animal experiments were performed according to the regulations of the Ethics Committee for the Care and Use of Laboratory Animals at the Medical University Vienna (proposal number BMBWF-V/3b 2020-0.380.502).

The target of a further data set is T1, albumin (Bos taurus, UniProt P02769).
T1 construct: tissue Sigma-Aldrich; host or cells: fetal calf serum
The experiment in a line: Albumin binding in fetal calf serum by SEC-ICP-MS. In kind it is in vitro ADME. The settings on record: fetal calf serum 37 °C, 100 μM. Here is the method:
Fetal calf serum was purchased from Sigma-Aldrich and buffered with 150 mM phosphate buffer (pH 7.4) to guarantee a stable pH. The platinum(IV) complexes were dissolved in 150 mM phosphate buffer (pH 7.4) to 1 mM and diluted 1:10 in serum to obtain a final concentration of 100 μM. The samples were then incubated in the autosampler at 37 °C for 24 h and analyzed at 0 h, 1 h, 4 h, and 24 h. Between each sample, a pure water blank was measured. For SEC-ICP-MS measurements, an Agilent 1260 Infinity system coupled to an Agilent 7800 ICP-MS equipped with a dynamic reaction cell was used. Oxygen (purity 5.5, Messer AustriaGmbH, Gumpoldskirchen, Austria) was used as reaction gas at 30% and 0.9 L/min flow.
On the technique in general: SEC sorts molecules by how far they enter the pores of the column.

Data set [2] concerns HCT116, HCT116/OxR, A2780, A2780/Cis cells. The data set is described as follows: 72 h cell viability (MTT) assay, all malignant cell models. In kind it is cell-based, human. Here is the method:
as §1

For data set [3], the system named is HCT116 and HCT116/OxR cells. The data set is described as follows: In vitro platinum cell uptake by ICP-MS. In kind it is cell-based, human. The settings on record: 3 h exposure. Here is the method: Cells were seeded at 1.5 ×10^5 cells/well in six-well plates in 1.5 mL and after 24 h recovery treated with 500 µL of compounds at the indicated concentrations in triplicates. After 3 h drug exposure, cells were detached, washed twice with phosphate-buffered saline (PBS), dried at RT for 15 min and lysed in 100 µL HNO3 (69%, Rotipuran Supra, Carl Roth, Karlsruhe, Germany) for 1 h at RT. The lysate was added to fresh tubes containing 200 µL ddH2O. ICP-MS measurements were performed with an Agilent 8800 ICP-MS/MS instrument (Agilent Technologies, Tokyo, Japan). The sample introduction system consisted of a MicroMist nebulizer (200 μL min^−1 nominal sample uptake) and a quartz double-pass spray chamber. The instrument was tuned on a daily basis in order to achieve maximum sensitivity, low oxide formation, and low doubly charged ratios. Platinum was monitored in no gas mode with an integration time of 0.3 s. The flow injection measurements were performed with a bioinert HPLC 1260 (Agilent Technologies, Waldbronn, Germany), which was directly connected to the nebulizer of the ICP-MS/MS instrument with a PEEK tubing. The following chromatographic conditions were used: injection volume: 10 µL; flow rate: 0.30 mL min^-1; isocratic elution; CH3COONH4 (50 mM, pH = 6.8) aqueous solution was employed as mobile phase. The data were recorded and evaluated with the Agilent MassHunter Chromatography software package, MassHunter 4.6., 2019.

T1 sequence (P02769 25-607): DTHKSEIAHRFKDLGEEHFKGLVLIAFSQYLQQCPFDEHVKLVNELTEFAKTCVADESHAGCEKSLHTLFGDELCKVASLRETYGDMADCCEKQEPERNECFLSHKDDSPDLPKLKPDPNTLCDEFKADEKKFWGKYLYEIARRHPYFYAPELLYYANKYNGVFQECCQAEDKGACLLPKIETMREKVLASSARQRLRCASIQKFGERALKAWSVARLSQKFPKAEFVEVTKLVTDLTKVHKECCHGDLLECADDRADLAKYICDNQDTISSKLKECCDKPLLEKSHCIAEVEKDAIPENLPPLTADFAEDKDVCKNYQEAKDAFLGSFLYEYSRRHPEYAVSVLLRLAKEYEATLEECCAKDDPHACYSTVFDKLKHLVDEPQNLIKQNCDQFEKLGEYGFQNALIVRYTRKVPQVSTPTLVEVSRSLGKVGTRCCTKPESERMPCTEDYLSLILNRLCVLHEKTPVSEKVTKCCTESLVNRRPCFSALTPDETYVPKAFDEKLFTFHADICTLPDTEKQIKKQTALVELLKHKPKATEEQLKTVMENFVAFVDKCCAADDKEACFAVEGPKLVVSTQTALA

Broadly, the IC50 is the midpoint of a concentration-inhibition curve. On to `CCCCS(=N)(=O)CCC(NC(=O)[O][Pt]1([O]C(C)=O)[O]C(=O)C(=O)[O]1)C(=O)O.NC1CCCCC1N` (mixture of isomers) [BSO-OxOAc, (OC-6-34)-Acetato(((1 S)-3-(butylsulfonimidoyl)-1-carboxypropyl)carbamato)((1 R,2 R)-1,2-cyclohexanediamino)oxalatoplatinum(IV)], for which the IC50 in the data set with A2780 cells amounted to 20.6 µM; in the data set on HCT116 cells, 32.1 µM; with A2780/Cis cells (A2780/Cis, 72 h continuous exposure, read-out: IC50 value (95% confidence interval)), 28.5 µM; with HCT116/OxR cells (HCT116/OxR, 72 h continuous exposure, read-out: IC50 value (95% confidence interval)), 95.5 µM. In addition, the resistance factor with A2780/Cis cells (IC50 A2780/Cis divided by IC50 A2780) was 1.4; in the data set on HCT116/OxR cells (IC50 HCT116/OxR divided by IC50 HCT116), 2.9. In addition, in data set [1], the “impact on cellular GSH content” value is listed as “moderately”. In addition, in the data set with CT26 allografts (CT26 allografts, twice a week for two weeks, equimolar doses), the “tumor doubling time extended” value was 1.2 fold. Moreover, the “maximal tumor growth inhibition” value in the data set with CT26 allografts (day 11, CT26 allografts, twice a week for two weeks, equimolar to 9 mg/kg oxaliplatin i.v.) turned out to be 51.3%. The “tumor volumes as compared to solvent controls” value in the data set on CT26 allografts (first two weeks of treatment) is on record as “significantly reduced tumor volumes”. For the same compound, the “bound to albumin fraction” value on albumin (t 0 h), at albumin (t 1 h), on albumin (t 4 h) and at albumin (t 24 h) was 0% throughout. Besides, the “free (low molecular weight fraction)” value on albumin (t 0 h), on albumin (t 1 h), on albumin (t 4 h) and on albumin (t 24 h) was 100% throughout. For the same compound, the “enhancement of IC50 values as compared to oxaliplatin” value in data set [2] was 10- to 50 fold. In addition, the “intracellular accumulation in HCT116/OxR as compared to parental HCT116” value in [3] is on record as “only non-significantly altered”. The “overall cellular platinum accumulation compared between compounds” value in data set [3] (both cell models) was “distinctly lower than of oxaliplatin”.
